Here are results for 19 compounds from PubChem BioAssay AID328 (DTP/NCI, 2004).

Several values for one entry are separate records, joined by “and”; a condition that tells them apart may be missing. Equal entries are not always repeated. Toxic doses and inconclusive results are not listed.

This assay has as its system BDF1 mice, P388 leukemia ip, median survival T/C. Kind of assay: NCI In Vivo Anticancer Drug Screen. Data for tumor model P388 Leukemia (intraperitoneal) in B6D2F1 (BDF1) mice. The settings on record: endpoint: median survival time, higher = longer survival. An outline of the steps: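 Read-out is survival of treated animals expressed relative to the vehicle group, as a T/C ratio.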

[1] abbreviates: dose: 100.0 mg/kg/injection, schedule: Q04DX003 (ip), vehicle: saline.
[2] abbreviates: dose: 200.0 mg/kg/injection, schedule: Q04DX003 (ip), vehicle: saline.
Setting [3] is: dose: 400.0 mg/kg/injection, schedule: Q04DX003 (ip), vehicle: saline.
Setting [4] is: dose: 50.0 mg/kg/injection, schedule: Q01DX009 (ip), vehicle: saline with Tween-80.
Setting [5] is: dose: 100.0 mg/kg/injection, schedule: Q01DX009 (ip), vehicle: saline with Tween-80.
[6] abbreviates: dose: 200.0 mg/kg/injection, schedule: Q01DX009 (ip), vehicle: saline with Tween-80.
Where [7] appears, read: dose: 100.0 mg/kg/injection, schedule: Q04DX003 (ip), vehicle: saline with Tween-80.
The mark [8] stands for this setting: dose: 200.0 mg/kg/injection, schedule: Q04DX003 (ip), vehicle: saline with Tween-80.
[9] abbreviates: dose: 400.0 mg/kg/injection, schedule: Q04DX003 (ip), vehicle: saline with Tween-80.
The mark [10] stands for this setting: dose: 200.0 mg/kg/injection, schedule: Q01DX009 (ip), vehicle: Klucel (hydroxypropylcellulose) (HPC).
The mark [11] stands for this setting: dose: 12.5 mg/kg/injection, schedule: Q01DX009 (ip), vehicle: Klucel (hydroxypropylcellulose) (HPC).

In the case of `O=S(=O)(O)C(I)(I)S(=O)(=O)O`, the T/C reads like this: under setting [1], 100 % of control; under setting [2], 95 % of control; under setting [3], 104 % of control.
With `CN(C)C(=S)/N=c1\ss/c(=N\C(=S)N(C)C)n1-c1ccccc1`, the T/C under setting [4] is 100 % of control, the T/C under setting [5] was 95 % of control and the T/C under setting [6] was 95 % of control.
Turning to `COc1cc(Nc2ncnc(N)c2[N+](=O)[O-])cc(OC)c1OC`, the T/C was 87 % of control (dose: 100.0 mg/kg/injection, schedule: Q01DX001 (ip), vehicle: saline with Tween-80) and 87 % of control (dose: 400.0 mg/kg/injection, schedule: Q01DX001 (ip), vehicle: saline with Tween-80).
Regarding `O=C1c2ccc(Br)cc2-c2cc(Br)ccc21`, the T/C by setting is: under setting [5], 99 % of control; under setting [6], 106 % of control; (dose: 400.0 mg/kg/injection, schedule: Q01DX009 (ip), vehicle: saline with Tween-80) 101 % of control.
Take `C=C[P+](c1ccccc1)(c1ccccc1)c1ccccc1`: the T/C (dose: 1.0 mg/kg/injection, schedule: Q01DX009 (ip), vehicle: saline) is 110 % of control; the T/C (dose: 1.5 mg/kg/injection, schedule: Q01DX010 (ip), vehicle: saline) is 95 % of control; the T/C (dose: 2.5 mg/kg/injection, schedule: Q01DX009 (ip), vehicle: saline) was 150 % of control; the T/C (dose: 3.0 mg/kg/injection, schedule: Q01DX010 (ip), vehicle: saline) is 116 % of control; the T/C (dose: 3.3 mg/kg/injection, schedule: Q04DX003 (ip), vehicle: saline) was 120 % of control; the T/C (dose: 3.7 mg/kg/injection, schedule: Q01DX009 (ip), vehicle: saline) is 89 % of control. In addition, the T/C (dose: 5.0 mg/kg/injection, schedule: Q01DX009 (ip), vehicle: saline) was 95 % of control.
As to `COc1cc2cc(c1Cl)NC(=O)CC(OC(=O)C(C)N(C)C(C)=O)C1(C)OC1C(C)C1CC(O)(NC(=O)O1)C(OC)C=C/C=C(\C)C2` (configuration not stated), the T/C is 120 % of control (dose: 0.1 micrograms/kg/injection, schedule: Q01DX009 (ip), vehicle: saline + alcohol); 110 % of control (dose: 0.2 micrograms/kg/injection, schedule: Q01DX009 (ip), vehicle: saline + alcohol); 115 % of control (dose: 0.4 micrograms/kg/injection, schedule: Q01DX009 (ip), vehicle: saline + alcohol); 110 % of control (dose: 0.8 micrograms/kg/injection, schedule: Q01DX009 (ip), vehicle: saline + alcohol); 170 % of control (dose: 6.2 micrograms/kg/injection, schedule: Q01DX009 (ip), vehicle: saline + alcohol); 120 % of control (dose: 12.5 micrograms/kg/injection, schedule: Q01DX009 (ip), vehicle: saline + alcohol). Further, the T/C is, setting by setting: (dose: 25.0 micrograms/kg/injection, schedule: Q01DX009 (ip), vehicle: saline + alcohol) 185 % of control; (dose: 50.0 micrograms/kg/injection, schedule: Q01DX009 (ip), vehicle: saline + alcohol) 120 % of control.
Consider `Cc1ccc(S(=O)(=O)CC([Se]C#N)c2ccccc2)cc1` (configuration not stated), for which the T/C by setting is: under setting [7], 105 % of control; under setting [8], 92 % of control; under setting [9], 89 % of control.
Regarding `COc1ccc(C(=O)CCCCl)cc1`, the T/C reads like this: (dose: 100.0 mg/kg/injection, schedule: Q01DX009 (ip), vehicle: Klucel (hydroxypropylcellulose) (HPC)) 100 % of control; under setting [10], 110 % of control; (dose: 400.0 mg/kg/injection, schedule: Q01DX009 (ip), vehicle: Klucel (hydroxypropylcellulose) (HPC)) 95 % of control.
`CCCCCCCCC1SC1CCCCCCCC(=O)OCCOCCOCC` (configuration not stated): the T/C is 88 % of control under setting [1], 88 % of control under setting [2] and 92 % of control under setting [3].
Take `COc1ccc(CC(=O)N2CCc3cc(OC)c(OC)cc3C2O)cc1OC` (configuration not stated): the T/C is, setting by setting: (dose: 12.5 mg/kg/injection, schedule: Q01DX009 (ip), vehicle: saline with Tween-80) 101 % of control; (dose: 25.0 mg/kg/injection, schedule: Q01DX009 (ip), vehicle: saline with Tween-80) 89 % of control; under setting [4], 94 % of control; under setting [5], 114 % of control.
For the compound `CC(=O)NC(Cc1ccc(N(CCCl)CCCl)cc1)C(=O)NC(CC(C)C)C(=O)O` (configuration not stated), the T/C reads like this: (dose: 20.0 mg/kg/injection, schedule: Q04DX003 (ip), vehicle: other) 152 % of control; (dose: 40.0 mg/kg/injection, schedule: Q04DX003 (ip), vehicle: other) 203 % of control; (dose: 80.0 mg/kg/injection, schedule: Q04DX003 (ip), vehicle: other) 239 % of control; (dose: 160.0 mg/kg/injection, schedule: Q04DX003 (ip), vehicle: other) 104 % of control.
For the compound `N=C(N)c1nn(C2OC(CO)C(O)C2O)c2ncnc(N)c12` (configuration not stated), the T/C is, setting by setting: (dose: 10.0 mg/kg/injection, schedule: Q01DX009 (ip), vehicle: saline) 114 % of control and 117 % of control; (dose: 10.0 mg/kg/injection, schedule: Q04DX003 (ip), vehicle: saline) 109 % of control and 118 % of control; (dose: 20.0 mg/kg/injection, schedule: Q01DX009 (ip), vehicle: saline) 117 % of control and 124 % of control; (dose: 20.0 mg/kg/injection, schedule: Q04DX003 (ip), vehicle: saline) 122 % of control; (dose: 40.0 mg/kg/injection, schedule: Q04DX003 (ip), vehicle: saline) 104 % of control; (dose: 80.0 mg/kg/injection, schedule: Q04DX003 (ip), vehicle: saline) 95 % of control.
Turning to `COc1ccc(-c2nnc(C)nc2-c2ccc(OC)cc2)cc1`, the T/C is, setting by setting: (dose: 50.0 mg/kg/injection, schedule: Q01DX005 (ip), vehicle: saline with Tween-80) 96 % of control; (dose: 100.0 mg/kg/injection, schedule: Q01DX005 (ip), vehicle: saline with Tween-80) 106 % of control; (dose: 200.0 mg/kg/injection, schedule: Q01DX005 (ip), vehicle: saline with Tween-80) 100 % of control.
Take `CC(C)CCCC(=O)CCCCCCC(=O)CCN(O)C(=O)C(N)CO` (configuration not stated): the T/C runs as follows: (dose: 6.25 mg/kg/injection, schedule: Q01DX009 (ip), vehicle: Klucel (hydroxypropylcellulose) (HPC)) 98 % of control; under setting [11], 94 % of control; (dose: 25.0 mg/kg/injection, schedule: Q01DX009 (ip), vehicle: Klucel (hydroxypropylcellulose) (HPC)) 94 % of control.
Consider `CN1CCCC1c1cccnc1` (configuration not stated), for which the T/C by setting is: (dose: 3.13 mg/kg/injection, schedule: Q01DX009 (ip), vehicle: saline) 109 % of control; (dose: 6.25 mg/kg/injection, schedule: Q01DX009 (ip), vehicle: saline) 109 % of control.
Regarding `CC(C)(C)c1cc(C(C)(C)O)c2c(c1)C(C)(C)OS2(C)Cl` (configuration not stated), the T/C is 100 % of control (dose: 12.5 mg/kg/injection, schedule: Q04DX003 (ip), vehicle: saline with Tween-80); 100 % of control (dose: 25.0 mg/kg/injection, schedule: Q04DX003 (ip), vehicle: saline with Tween-80); 96 % of control (dose: 50.0 mg/kg/injection, schedule: Q04DX003 (ip), vehicle: saline with Tween-80).
Take `[Cl][Rh][Cl].[NH-]c1ccc(S(N)(=O)=O)cc1.[NH-]c1ccc(S(N)(=O)=O)cc1.[NH-]c1ccc(S(N)(=O)=O)cc1.[NH-]c1ccc(S(N)(=O)=O)cc1`: the T/C was 108 % of control under setting [7], 103 % of control under setting [8] and 107 % of control under setting [9].
`CC1=Nc2ccccc2/C1=C\c1c(C)[nH]c2ccccc12`: the T/C runs as follows: (dose: 5.5 mg/kg/injection, schedule: Q01DX009 (ip), vehicle: Klucel (hydroxypropylcellulose) (HPC)) 109 % of control; (dose: 8.2 mg/kg/injection, schedule: Q01DX009 (ip), vehicle: Klucel (hydroxypropylcellulose) (HPC)) 118 % of control; under setting [11], 161 % of control; (dose: 33.0 mg/kg/injection, schedule: Q01DX009 (ip), vehicle: Klucel (hydroxypropylcellulose) (HPC)) 103 % of control and 109 % of control; (dose: 75.0 mg/kg/injection, schedule: Q01DX009 (ip), vehicle: Klucel (hydroxypropylcellulose) (HPC)) 96 % of control and 113 % of control; under setting [10], 154 % of control.
Take `CC1(C)CC(=O)C=C(NC2CCCCC2)C1`: the T/C was 90 % of control (dose: 50.0 mg/kg/injection, schedule: Q04DX003 (ip), vehicle: saline sonified); 109 % of control (dose: 100.0 mg/kg/injection, schedule: Q04DX003 (ip), vehicle: saline sonified); 100 % of control (dose: 200.0 mg/kg/injection, schedule: Q04DX003 (ip), vehicle: saline sonified).
